Results: PubChem BioAssay AID1259411 (Chemical Carcinogenesis Research Information System (CCRIS), 2018)
Activity calls are given as the source filed them. No rule for the calls is given here.

Test system: rodent carcinogenicity bioassays, tumor incidence
Assay: CCRIS carcinogenicity studies
Conditions: Dose: 0, Dose: 0
Outline: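 NCI-built, expert-reviewed records of carcinogenicity and related test outcomes (mutagenicity, tumor promotion/inhibition) compiled from published and report sources, historical span 1985-2011, not updated.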

`O=c1c(O)c(-c2ccc(O)c(O)c2)oc2cc(O)cc(O)c12` was tested, and the carcinogen call (Species: RAT, Strain/Sex: F344/FEMALE, Route: ORAL, 0.1, 0.2% IN DIET FOR DURATION OF STUDY (STUDY DURATION: 64 WK), 0.1, 0.2% IN DIET FOR DURATION OF STUDY (STUDY DURATION: 64 WK)) was “inactive; negative”, the carcinogen call (Species: RAT, Strain/Sex: F344/FEMALE, Route: ORAL, 1.25, 5.0% IN DIET FOR 104 WK (STUDY DURATION: 112 WK), 1.25, 5.0% IN DIET FOR 104 WK (STUDY DURATION: 112 WK)) was “inactive; negative” and the carcinogen call (Species: RAT, Strain/Sex: F344/FEMALE, Route: ORAL, 1,000, 10,000, 40,000 PPM IN DIET FOR 104 WK (STUDY DURATION: 104 WK), 1,000, 10,000, 40,000 PPM IN DIET FOR 104 WK (STUDY DURATION: 104 WK)) was “inactive; negative”. The carcinogen call (Species: RAT, Strain/Sex: F344/MALE, Route: ORAL, 0.1, 0.2% IN DIET FOR DURATION OF STUDY (STUDY DURATION: 64 WK), 0.1, 0.2% IN DIET FOR DURATION OF STUDY (STUDY DURATION: 64 WK)) was “inactive; negative”, the carcinogen call (Species: RAT, Strain/Sex: F344/MALE, Route: ORAL, 1.25, 5.0% IN DIET FOR 104 WK (STUDY DURATION: 112 WK), 1.25, 5.0% IN DIET FOR 104 WK (STUDY DURATION: 112 WK)) was “inactive; negative” and the carcinogen call (Species: RAT, Strain/Sex: F344/MALE, Route: ORAL, 1,000, 10,000, 40,000 PPM IN DIET FOR 104 WK (STUDY DURATION: 104 WK), 1,000, 10,000, 40,000 PPM IN DIET FOR 104 WK (STUDY DURATION: 104 WK), Tumor Site: Type of Lesion: KIDNEY (RENAL TUBULE): ADENOMA) was “active; positive”.

For `c1ccc2c(c1)c1c(c3cccnc32)O1`, the carcinogen call (Species: MOUSE, Strain/Sex: CD-1/FEMALE, Route: INTRAPERITONEAL, 5, 10 AND 20 µL OF A 0.05 MOLAR SOLUTION ON DAYS 1, 8 AND 15 OF LIFE RESPECTIVELY (TOTAL DOSE: 1.75 UMOL) (STUDY DURA, 5, 10 AND 20 µL OF A 0.05 MOLAR SOLUTION ON DAYS 1, 8 AND 15 OF LIFE RESPECTIVELY (TOTAL DOSE: 1.75 UMOL) (STUDY DURA) was “inactive; negative” and the carcinogen call (Species: MOUSE, Strain/Sex: CD-1/MALE, Route: INTRAPERITONEAL, 5, 10 AND 20 µL OF A 0.05 MOLAR SOLUTION ON DAYS 1, 8 AND 15 OF LIFE RESPECTIVELY (TOTAL DOSE: 1.75 UMOL) (STUDY DURA, 5, 10 AND 20 µL OF A 0.05 MOLAR SOLUTION ON DAYS 1, 8 AND 15 OF LIFE RESPECTIVELY (TOTAL DOSE: 1.75 UMOL) (STUDY DURA) was “inactive; negative”.

`Nc1nc(/C=C/c2ccc([N+](=O)[O-])o2)no1` was tested, and the carcinogen call (Species: MOUSE, Strain/Sex: CD-1/FEMALE, Route: GAVAGE, 41, 82, 173 MG/KG/D SUSPENDED IN 25% GLYCEROL 4 D/WK FOR 371 D (TOTAL DOSE 0; 15.4; 30.9; 64.2 G) (STUDY DURATION: LI, 41, 82, 173 MG/KG/D SUSPENDED IN 25% GLYCEROL 4 D/WK FOR 371 D (TOTAL DOSE 0; 15.4; 30.9; 64.2 G) (STUDY DURATION: LI, Tumor Site: Type of Lesion: THYMUS: LYMPHOMA, BLADDER: TRANSITIONAL CELL CARCINOMA, STOMACH: SQUAMOUS CELL CARCINOMA, SQUAMOUS PAPILLOMA, LUNG: ADEN, Tumor Site: Type of Lesion: THYMUS: LYMPHOMA, BLADDER: TRANSITIONAL CELL CARCINOMA, STOMACH: SQUAMOUS CELL CARCINOMA, SQUAMOUS PAPILLOMA, LUNG: ADEN) was “active; positive”, the carcinogen call (Species: MOUSE, Strain/Sex: CD-1/FEMALE, Route: ORAL, 0.17% IN DIET FOR 58 WK (STUDY DURATION: 91 WK), Tumor Site: Type of Lesion: HEMATOPOIETIC SYSTEM: LYMPHOMA, THYMUS: LYMPHOMA, STOMACH: SQUAMOUS CELL CARCINOMA, SPINDLE CELL TUMOR, Tumor Site: Type of Lesion: HEMATOPOIETIC SYSTEM: LYMPHOMA, THYMUS: LYMPHOMA, STOMACH: SQUAMOUS CELL CARCINOMA, SPINDLE CELL TUMOR) was “active; positive” and the carcinogen call (Species: MOUSE, Strain/Sex: CD-1/FEMALE, Route: ORAL, 0.25% IN DIET FOR 31 WK (STUDY DURATION: LIFE), Tumor Site: Type of Lesion: THYMUS: LYMPHOMA, STOMACH: SQUAMOUS CELL CARCINOMA, LUNG: ADENOMA, MAMMARY GLAND: ADENOCARCINOMA, Tumor Site: Type of Lesion: THYMUS: LYMPHOMA, STOMACH: SQUAMOUS CELL CARCINOMA, LUNG: ADENOMA, MAMMARY GLAND: ADENOCARCINOMA) was “active; positive”. The carcinogen call (Species: MOUSE, Strain/Sex: CD-1/MALE, Route: GAVAGE, 45, 87, 185 MG/KG/D SUSPENDED IN 25% GLYCEROL 4 D/WK FOR 371 D (TOTAL DOSE 0; 16.8; 32.3; 68.8 G) (STUDY DURATION: LI, 45, 87, 185 MG/KG/D SUSPENDED IN 25% GLYCEROL 4 D/WK FOR 371 D (TOTAL DOSE 0; 16.8; 32.3; 68.8 G) (STUDY DURATION: LI, Tumor Site: Type of Lesion: THYMUS: LYMPHOMA, BLADDER: TRANSITIONAL CELL CARCINOMA, STOMACH: SQUAMOUS CELL CARCINOMA, SQUAMOUS PAPILLOMA, LUNG: ADEN, Tumor Site: Type of Lesion: THYMUS: LYMPHOMA, BLADDER: TRANSITIONAL CELL CARCINOMA, STOMACH: SQUAMOUS CELL CARCINOMA, SQUAMOUS PAPILLOMA, LUNG: ADEN) was “active; positive”, the carcinogen call (Species: MOUSE, Strain/Sex: CD-1/MALE, Route: ORAL, 0.18% IN DIET FOR 58 WK (STUDY DURATION: 92 WK), Tumor Site: Type of Lesion: THYMUS: LYMPHOMA, BLADDER: TRANSITIONAL CELL CARCINOMA, STOMACH: SQUAMOUS CELL CARCINOMA, SPINDLE CELL TUMOR, Tumor Site: Type of Lesion: THYMUS: LYMPHOMA, BLADDER: TRANSITIONAL CELL CARCINOMA, STOMACH: SQUAMOUS CELL CARCINOMA, SPINDLE CELL TUMOR) was “active; positive” and the carcinogen call (Species: MOUSE, Strain/Sex: CD-1/MALE, Route: ORAL, 0.25% IN DIET FOR 38 WK (STUDY DURATION: LIFE), Tumor Site: Type of Lesion: THYMUS: LYMPHOMA, BLADDER: TRANSITIONAL CELL CARCINOMA, SPINDLE CELL TUMOR, STOMACH: SQUAMOUS CELL CARCINOMA, SQUAMOUS P, Tumor Site: Type of Lesion: THYMUS: LYMPHOMA, BLADDER: TRANSITIONAL CELL CARCINOMA, SPINDLE CELL TUMOR, STOMACH: SQUAMOUS CELL CARCINOMA, SQUAMOUS P) was “active; positive”.

With `Nc1cc(S(=O)(=O)[O-])cc2c1C(=O)/C(=N\Nc1ccc(-c3ccc(N/N=C4\C(=O)c5c(N)cc(S(=O)(=O)[O-])cc5C=C4S(=O)(=O)[O-])c(O)c3)cc1O)C(S(=O)(=O)[O-])=C2.[Cu].[Cu].[Na+].[Na+].[Na+].[Na+]` the carcinogen call (Species: MOUSE, Strain/Sex: B6C3F1/FEMALE, Route: ORAL, 1000, 3000, 10000 PPM IN DIET FOR 103 WK (STUDY DURATION: 106 WK), 1000, 3000, 10000 PPM IN DIET FOR 103 WK (STUDY DURATION: 106 WK), Tumor Site: Type of Lesion: LIVER: HEPATOCELLULAR ADENOMA, HEPATOCELLULAR CARCINOMA) was “active; positive”, the carcinogen call (Species: MOUSE, Strain/Sex: B6C3F1/MALE, Route: ORAL, 1000, 3000, 10000 PPM IN DIET FOR 103 WK (STUDY DURATION: 106 WK), 1000, 3000, 10000 PPM IN DIET FOR 103 WK (STUDY DURATION: 106 WK), Tumor Site: Type of Lesion: LIVER: HEPATOCELLULAR ADENOMA, HEPATOCELLULAR CARCINOMA) was “active; positive” and the carcinogen call (Species: RAT, Strain/Sex: F344/FEMALE, Route: ORAL, 1000, 3000, 10000 PPM IN DIET FOR 103 WK (STUDY DURATION: 105 WK), 1000, 3000, 10000 PPM IN DIET FOR 103 WK (STUDY DURATION: 105 WK)) was “inactive; negative”. For the same molecule, the carcinogen call (Species: RAT, Strain/Sex: F344/MALE, Route: ORAL, 1000, 3000, 10000 PPM IN DIET FOR 103 WK (STUDY DURATION: 105 WK), 1000, 3000, 10000 PPM IN DIET FOR 103 WK (STUDY DURATION: 105 WK), Tumor Site: Type of Lesion: PHARYNX: SQUAMOUS CELL PAPILLOMA OR SQUAMOUS CELL CARCINOMA) was “active; positive”.
